# Results as given in ChEMBL document CHEMBL3039007, “Structure-based identification of OATP1B1/3 inhibitors” (Mol Pharmacol, 2013).
# Columns and labels:
# [1] = target: T1, Solute carrier organic anion transporter family member 1B1 (Homo sapiens, UniProt Q9Y6L6)
# T1 sequence (Q9Y6L6 whole entry): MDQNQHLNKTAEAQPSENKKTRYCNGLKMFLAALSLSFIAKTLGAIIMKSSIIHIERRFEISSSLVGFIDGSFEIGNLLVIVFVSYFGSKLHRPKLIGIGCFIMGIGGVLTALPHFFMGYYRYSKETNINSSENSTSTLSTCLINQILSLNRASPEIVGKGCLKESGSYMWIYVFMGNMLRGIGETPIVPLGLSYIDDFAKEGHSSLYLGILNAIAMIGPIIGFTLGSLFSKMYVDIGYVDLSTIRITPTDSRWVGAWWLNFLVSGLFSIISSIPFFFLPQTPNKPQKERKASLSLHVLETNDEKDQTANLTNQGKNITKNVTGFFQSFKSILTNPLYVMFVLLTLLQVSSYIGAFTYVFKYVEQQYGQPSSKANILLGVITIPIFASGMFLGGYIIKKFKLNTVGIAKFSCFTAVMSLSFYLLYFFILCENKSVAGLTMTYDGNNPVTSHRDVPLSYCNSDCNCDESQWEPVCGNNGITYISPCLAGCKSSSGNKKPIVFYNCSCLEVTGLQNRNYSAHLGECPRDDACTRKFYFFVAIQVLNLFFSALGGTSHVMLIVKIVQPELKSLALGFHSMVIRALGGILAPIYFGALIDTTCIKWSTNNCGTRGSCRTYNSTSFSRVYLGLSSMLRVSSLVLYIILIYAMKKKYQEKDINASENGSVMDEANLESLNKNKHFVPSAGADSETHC
# [2] = target: T1, Solute carrier organic anion transporter family member 1B1; remark: listed apart in the source
# [3] = target: T2, Solute carrier organic anion transporter family member 1B3 (Homo sapiens, UniProt Q9NPD5)
# T2 sequence (Q9NPD5 whole entry): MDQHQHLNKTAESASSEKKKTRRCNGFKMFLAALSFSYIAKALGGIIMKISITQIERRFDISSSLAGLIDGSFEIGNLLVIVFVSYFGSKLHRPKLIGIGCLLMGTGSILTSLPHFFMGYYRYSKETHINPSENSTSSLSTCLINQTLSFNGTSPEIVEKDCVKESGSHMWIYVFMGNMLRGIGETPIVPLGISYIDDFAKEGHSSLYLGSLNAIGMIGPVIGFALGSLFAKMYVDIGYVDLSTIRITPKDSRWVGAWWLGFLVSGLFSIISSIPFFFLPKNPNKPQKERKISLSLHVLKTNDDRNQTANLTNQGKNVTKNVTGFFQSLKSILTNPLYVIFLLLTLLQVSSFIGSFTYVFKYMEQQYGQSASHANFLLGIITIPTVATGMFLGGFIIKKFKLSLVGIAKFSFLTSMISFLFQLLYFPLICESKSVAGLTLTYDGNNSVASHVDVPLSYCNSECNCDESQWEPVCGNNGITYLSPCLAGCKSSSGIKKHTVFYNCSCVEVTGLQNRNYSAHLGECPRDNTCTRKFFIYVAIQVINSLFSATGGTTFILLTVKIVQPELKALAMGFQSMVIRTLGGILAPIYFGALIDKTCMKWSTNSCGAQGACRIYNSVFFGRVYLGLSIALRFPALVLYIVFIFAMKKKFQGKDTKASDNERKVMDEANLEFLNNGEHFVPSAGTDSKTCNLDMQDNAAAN
# [4] = target: T2, Solute carrier organic anion transporter family member 1B3; remark: listed apart in the source
# [5] = target: T1, Solute carrier organic anion transporter family member 1B1; details: chinese hamster, cho, 10 µM
# [6] = target: T2, Solute carrier organic anion transporter family member 1B3; details: chinese hamster, cho, 10 µM
SMILES,IC50 [1] [nM],Ki [2] [nM],IC50 [3] [nM],Ki [4] [nM],residual activity [5] [%],residual activity [6] [%]
CC(C)=CCCC1(C)C=Cc2c(O)c3c(c(CC=C(C)C)c2O1)OC12C(=CC4CC1C(C)(C)OC2(C/C=C(/C)C(=O)O)C4O)C3=O (centres undefined) [DIHYDROGAMBOGIC ACID],2240,1230,2880,2240,14.23,17.26
COC(=O)/C(C)=C\CC12OC(C)(C)C3CC(C=C4C(=O)c5c(OC)c6c(c(CC=C(C)C)c5OC431)OC(C)(CCC=C(C)C)C=C6)C2=O (centres undefined) [DIMETHYL GAMBOGATE],2290,1260,5130,3940,23.19,62.06
C=C1[C@@H]2CC[C@@]3(C)[C@H](c4ccoc4)OC(=O)C[C@]13O[C@H]1C[C@H](OC(C)=O)C(C)(C)[C@H](CC(=O)OC)[C@]12C,933,510,4470,3470,13.98,21.87
CC1(C)C(=O)CC[C@]2(C)[C@@H]1C[C@@H](O)[C@]1(C)C3=CC(=O)O[C@H](c4ccoc4)[C@@]3(C)CC[C@@H]21,6310,3440,3310,2550,54.82,48.28
CC(=O)O[C@@H]1C[C@@H]2C(C)(C)C(=O)C=C[C@@]2(C)[C@@H]2CC[C@@]3(C)C(=CC(=O)O[C@@H]3c3ccoc3)[C@@]12C,1510,830,3800,2890,8.693,22.73
CCCc1nc2c(C)cc(-c3nc4ccccc4n3C)cc2n1Cc1ccc(-c2ccccc2C(=O)O)cc1,1860,1030,1260,960,77.57,41.88
CC(=O)OC/C=C(C)/C=C/C=C(C)/C=C/C1=C(C)CCCC1(C)C [GILRETINOL ACETATE],2240,1220,5010,3890,19.44,23.53
O=C1C=CC(=C(c2ccc(O)cc2)c2ccc(O)cc2)C=C1 [AURIN],2630,1430,4070,3150,4.068,20.35
"O=C(O[C@@H]1Cc2c(O)cc(O)cc2O[C@@H]1c1cc(O)c(O)c(O)c1-c1c([C@H]2Oc3cc(O)cc(O)c3C[C@H]2O)cc(O)c(O)c1O)c1cc(O)c(O)c(O)c1 [2',2'-BISEPIGALLOCATECHIN MONOGALLATE]",3720,2050,8510,6500,31.07,18.79
COC(=O)C[C@H]1C2(C)CC34OC5(C)O[C@@]6([C@H](OC)C(OC(=O)C(C)C)[C@]7(C)C(/C(=C(/OC)C(C)C)C(=O)O[C@H]7c7ccoc7)[C@@]6(O5)[C@H](OC)[C@@]3(OC)C2OC(C)=O)[C@]14C (some centres undefined) [CHUKRASIN METHYL ETHER],759,420,724,560,6.829,3.762
C=CC1=C(C)/C(=C/c2[nH]c(Cc3[nH]c(/C=C4\NC(=O)C(C)=C4C=C)c(C)c3CCC(=O)O)c(CCC(=O)O)c2C)NC1=O [BILIRUBIN],1320,720,3390,2630,15.29,32.05
CCCc1nc(C(C)(C)O)c(C(=O)OCc2oc(=O)oc2C)n1Cc1ccc(-c2ccccc2-c2nnn[nH]2)cc1 [OLMESARTAN MEDOXOMIL],977,540,977,750,15.39,9.702
COc1c(CC=C(C)C)c2c(c3oc(=O)c(-c4ccc(O)cc4)c(O)c13)C=CC(C)(C)O2 [SCANDENIN],1070,590,741,560,13.79,9.001
C[C@H]1CC[C@@]2(OC1)O[C@H]1C[C@H]3[C@@H]4CC[C@@H]5C[C@@H](O)CC[C@]5(C)[C@H]4CC[C@]3(C)[C@H]1[C@@H]2C [SARSASAPOGENIN],245,130,105,80,50.78,25.69
